Data taken from PubChem BioAssay (NCI).
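Test compounds were applied to cells in 96-well plates for 48 hours at 5 doses. GI50 is the concentration that inhibits growth by half. TGI denotes the concentration required for complete inhibition of growth.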

What was measured:
Test in all cases: NCI-60 cell line screen, 48 h
786-0 renal = test system: 786-0 renal
A498 renal = test system: A498 renal
A549 NSCLC = test system: A549 NSCLC
ACHN renal = test system: ACHN renal
BT-549 breast = test system: BT-549 breast
CAKI-1 renal = test system: CAKI-1 renal
CCRF-CEM leukemia = test system: CCRF-CEM leukemia
COLO 205 colon = test system: COLO 205 colon
DU-145 prostate = test system: DU-145 prostate
EKVX NSCLC = test system: EKVX NSCLC
HCC-2998 colon = test system: HCC-2998 colon
HCT-116 colon = test system: HCT-116 colon
HCT-15 colon = test system: HCT-15 colon
HL-60(TB) leukemia = test system: HL-60(TB) leukemia
HOP-62 NSCLC = test system: HOP-62 NSCLC
HOP-92 NSCLC = test system: HOP-92 NSCLC
HS 578T breast = test system: HS 578T breast
HT29 colon = test system: HT29 colon
IGROV1 ovarian = test system: IGROV1 ovarian
K-562 leukemia = test system: K-562 leukemia
KM12 colon = test system: KM12 colon
LOX IMVI melanoma = test system: LOX IMVI melanoma
M14 melanoma = test system: M14 melanoma
MALME-3M melanoma = test system: MALME-3M melanoma
MCF7 breast = test system: MCF7 breast
MDA-MB-231 breast = test system: MDA-MB-231 breast
MDA-MB-435 = test system: MDA-MB-435
MOLT-4 leukemia = test system: MOLT-4 leukemia
NCI-H226 lung = test system: NCI-H226 lung
NCI-H23 lung = test system: NCI-H23 lung
NCI-H460 lung = test system: NCI-H460 lung
NCI-H522 lung = test system: NCI-H522 lung
NCI/ADR-RES ovarian = test system: NCI/ADR-RES ovarian
OVCAR-3 ovarian = test system: OVCAR-3 ovarian
OVCAR-4 ovarian = test system: OVCAR-4 ovarian
OVCAR-5 ovarian = test system: OVCAR-5 ovarian
OVCAR-8 ovarian = test system: OVCAR-8 ovarian
PC-3 prostate = test system: PC-3 prostate
RPMI-8226 leukemia = test system: RPMI-8226 leukemia
RXF 393 renal = test system: RXF 393 renal
SF-268 CNS = test system: SF-268 CNS
SF-295 CNS = test system: SF-295 CNS
SF-539 CNS = test system: SF-539 CNS
SK-MEL-28 melanoma = test system: SK-MEL-28 melanoma
SK-MEL-5 melanoma = test system: SK-MEL-5 melanoma
SK-OV-3 ovarian = test system: SK-OV-3 ovarian
SN12C renal = test system: SN12C renal
SNB-19 CNS = test system: SNB-19 CNS
SNB-75 CNS = test system: SNB-75 CNS
SR leukemia = test system: SR leukemia
SW-620 colon = test system: SW-620 colon
T-47D breast = test system: T-47D breast
TK-10 renal = test system: TK-10 renal
U251 CNS = test system: U251 CNS
UACC-257 melanoma = test system: UACC-257 melanoma
UACC-62 melanoma = test system: UACC-62 melanoma
UO-31 renal = test system: UO-31 renal

## COc1ccc(-c2nn3ncccc3c2-c2ccnc(Nc3ccc(F)c(F)c3)n2)cc1
786-0 renal
  GI50: 11.1 µM
  TGI: > 25 µM
A498 renal
  GI50: 3.96 µM
  TGI: > 23 µM
A549 NSCLC
  GI50: 7.52 µM
  TGI: > 25 µM
ACHN renal
  GI50: 10.4 µM
  TGI: > 25 µM
BT-549 breast
  GI50: 15 µM
  TGI: > 25 µM
CAKI-1 renal
  GI50: 7.65 µM
  TGI: > 23.4 µM
CCRF-CEM leukemia
  GI50: 11.2 µM
  TGI: > 25 µM
COLO 205 colon
  GI50: 15.5 µM
  TGI: > 25 µM
DU-145 prostate
  GI50: 15.8 µM
  TGI: > 25 µM
EKVX NSCLC
  GI50: 5.06 µM
  TGI: > 22.7 µM
HCC-2998 colon
  GI50: 6.72 µM
  TGI: > 25 µM
HCT-116 colon
  GI50: 7.15 µM
  TGI: > 25 µM
HCT-15 colon
  GI50: 8.77 µM
  TGI: > 25 µM
HL-60(TB) leukemia
  GI50: 13.2 µM
  TGI: > 25 µM
HOP-62 NSCLC
  GI50: 14.1 µM
  TGI: > 25 µM
HOP-92 NSCLC
  GI50: 3.99 µM
  TGI: > 25 µM
HS 578T breast
  GI50: 9.2 µM
  TGI: > 25 µM
HT29 colon
  GI50: 5.43 µM
  TGI: > 25 µM
IGROV1 ovarian
  GI50: 8.47 µM
  TGI: 24.5 µM
K-562 leukemia
  GI50: 6.57 µM
  TGI: > 25 µM
KM12 colon
  GI50: 9.45 µM
  TGI: > 25 µM
LOX IMVI melanoma
  GI50: 7.42 µM
  TGI: > 25 µM
M14 melanoma
  GI50: 9.61 µM
  TGI: > 25 µM
MALME-3M melanoma
  GI50: 11.3 µM
  TGI: > 25 µM
MCF7 breast
  GI50: 10.6 µM
  TGI: > 25 µM
MDA-MB-231 breast
  GI50: 9.1 µM
  TGI: > 25 µM
MDA-MB-435
  GI50: 7.39 µM
  TGI: > 25 µM
MOLT-4 leukemia
  GI50: 8.45 µM
  TGI: > 25 µM
NCI-H226 lung
  GI50: 13.9 µM
  TGI: > 25 µM
NCI-H23 lung
  GI50: 11.5 µM
  TGI: > 25 µM
NCI-H460 lung
  GI50: 7.4 µM
  TGI: > 25 µM
NCI-H522 lung
  GI50: 8.18 µM
  TGI: > 23.6 µM
NCI/ADR-RES ovarian
  GI50: 8.27 µM
  TGI: > 25 µM
OVCAR-3 ovarian
  GI50: 11.8 µM
  TGI: > 25 µM
OVCAR-4 ovarian
  GI50: 12.4 µM
  TGI: > 25 µM
OVCAR-5 ovarian
  GI50: 11.6 µM
  TGI: > 25 µM
OVCAR-8 ovarian
  GI50: 11.2 µM
  TGI: > 25 µM
PC-3 prostate
  GI50: 8.7 µM
  TGI: > 25 µM
RPMI-8226 leukemia
  GI50: 14.7 µM
  TGI: > 25 µM
RXF 393 renal
  GI50: 7.45 µM
  TGI: > 25 µM
SF-268 CNS
  GI50: 14.2 µM
  TGI: > 25 µM
SF-295 CNS
  GI50: 4.26 µM
  TGI: > 25 µM
SF-539 CNS
  GI50: > 19.2 µM
  TGI: > 25 µM
SK-MEL-28 melanoma
  GI50: 17.8 µM
  TGI: > 25 µM
SK-MEL-5 melanoma
  GI50: 8.08 µM
  TGI: > 25 µM
SK-OV-3 ovarian
  GI50: 10.5 µM
  TGI: > 25 µM
SN12C renal
  GI50: 10.4 µM
  TGI: > 25 µM
SNB-19 CNS
  GI50: 14.3 µM
  TGI: > 25 µM
SNB-75 CNS
  GI50: 8.49 µM
  TGI: > 25 µM
SR leukemia
  GI50: 18.7 µM
  TGI: > 25 µM
SW-620 colon
  GI50: 17 µM
  TGI: > 25 µM
T-47D breast
  GI50: 6.42 µM
  TGI: > 25 µM
TK-10 renal
  GI50: 14.3 µM
  TGI: > 25 µM
U251 CNS
  GI50: 10.3 µM
  TGI: > 25 µM
UACC-257 melanoma
  GI50: 12 µM
  TGI: > 25 µM
UACC-62 melanoma
  GI50: 7.12 µM
  TGI: > 25 µM
UO-31 renal
  GI50: 5.8 µM
  TGI: > 20.9 µM
